Measurements: patent publication US7605190B2, “Polymerizable compositions with acylgermanium compounds” (Ivoclar Vivadent AG, priority 2006, dated 2009)
Read-outs that look alike come from different tables or passages of the source.

Experiments:
[1] = Absorption maximum (UV-VIS); assay type: physicochemical; settings: own acylgermanium photoinitiators
[2] = Photoinitiator activity by photo-DSC
Description: The activity of the photoinitiators was measured by means of photo-DSC (Differential Scanning Calorimetry) measurements on a DSC-50 device from Shimadzu, wherein the samples were irradiated alternatively with different dental lamps (Astalis 3: halogen lamp, wavelength range 400-500 nm, intensity 530 mW/cm^2; Bluephase C8: LED, wavelength range 430-490 nm, intensity 1100 mW/cm^2; Ivoclar Vivadent AG). The activity is characterized by the time of peak maximum (tmax), the polymerization rate (RP) which corresponds to the peak height, and the double bond conversion (DBC). The respective photoinitiators were dissolved in a resin mixture of D3MA:UDMA:bis-GMA=1:1:1 and then measured in an aluminum crucible by means of DSC. […]

[3] = known comparison photoinitiators; cited from earlier work
[4] = Astralis 3 lamp (400-500 nm), 0.022 mmol PI per gram of resin
[5] = Bluephase C8 lamp (430-490 nm), 0.022 mmol PI per gram of resin

Compound	absorption maximum [1] [nm]	reactivity compared with camphorquinone/amine ([2]; 15-fold dilution of the initiator)	DBC [2, 4] [%]	Rp × 10^−3 [2, 4]	tmax [2, 4] [s]	DBC [2, 5] [%]	Rp × 10^−3 [2, 5]	tmax [2, 5] [s]	curing time compared with campherquinone/amine ([2]; D3MA:UDMA:bis-GMA=1:1:1)	DBC ([2]; PI concentration 0.0014 mmol/g) [%]	Rp × 10^−3 ([2]; PI concentration 0.0014 mmol/g)	tmax ([2]; PI concentration 0.0014 mmol/g) [s]	DBC ([2]; PI concentration 0.0055 mmol/g) [%]	Rp × 10^−3 ([2]; PI concentration 0.0055 mmol/g)	tmax ([2]; PI concentration 0.0055 mmol/g) [s]	polymerization rate (Rp) relative to camphorquinone in combination with an amine accelerator ([2]; same formulation, D3MA:UDMA:bis-GMA=1:1:1)	absorption maximum [3] [nm]
C[CH2][Ge]([CH2]C)([C](=O)c1ccccc1)[C](=O)c1ccccc1 [Bis-AG, bisbenzoyldiethylgermanium]	418.5	comparable with camphorquinone/amine	84	99.2 mol/(l × s)	7.8	72	98.5 mol/(l × s)	7.8	halved	56	61.0 mol/(l × s)	12	66	85.6 mol/(l × s)	9	almost double	
O=[C](c1ccccc1)[Ge]1([C](=O)c2ccccc2)[CH2]CCC[CH2]1 [Example 9, 1,1-bisbenzoyl-germinane]	418.1																
Cc1cc(C)c(C(=O)P(=O)(C(=O)c2c(C)cc(C)cc2C)c2ccccc2)c(C)c1 [Irg 819, bis(2,4,6-trimethylbenzoyl)phenylphosphine oxide, reference compound]			59	67.5 mol/(l × s)	11	45	43.5 mol/(l × s)	17		42	30.4 mol/(l × s)	23	48	48.3 mol/(l × s)	14		397
[CH3][Ge]([CH3])([CH3])[C](=O)c1ccccc1 [Mono-AG, benzoyltrimethylgermanium]	411.5		56	51.0 mol/(l × s)	16	49	48.3 mol/(l × s)	16		30	16.4 mol/(l × s)	52	48	36.2 mol/(l × s)	24		
CC12CCC(C(=O)C1=O)C2(C)C (centres unmarked) [camphorquinone]																	468
